Assays:
[1] = Compound evaluated for their ability to phosphorylate eIF2R; type: functional; design: unit not given here
[2] = tested on: Lung cancer cell line; assay: In vitro anticancer activity against human lung cancer cell line; type: functional

Row | SMILES | Activity [1] | GI50 [2]
1 | O=C1Nc2ccc(F)cc2C1(c1ccccc1)c1ccccc1 | 0.44 | –
2 | O=C1Nc2ccc(I)cc2C1(c1ccccc1)c1ccccc1 | 1.31 | 8 µM
3 | CC(C)(C)c1ccc(O)c(C2(c3ccccc3)C(=O)Nc3ccccc32)c1 (stereo not given) | 2 | 4 µM
4 | O=C1Nc2ccc([N+](=O)[O-])cc2C1(c1ccccc1)c1ccccc1 | 1.2 | 14 µM
5 | O=C1Nc2cccc(Br)c2C1(c1ccccc1)c1ccccc1 | 0.84 | –
6 | O=C1Nc2ccc(Br)cc2C1(c1ccccc1)c1ccccc1 | 0.79 | –
7 | CC(C)(C)c1ccc(O)c(C2(c3ccccc3)C(=O)Nc3ccc(I)cc32)c1 (stereo not given) | 1.4 | –
8 | CC(C)(C)c1ccc(C2(c3ccc(O)cc3)C(=O)Nc3ccccc32)cc1 (stereo not given) | 2.01 | 14 µM
9 | O=C1Nc2ccccc2C1(c1ccccc1)c1ccc(O)cc1 (stereo not given) | 0.86 | –
10 | O=C1Nc2ccccc2C1(c1ccccc1)c1ccccc1 | 1 | 13 µM
11 | COc1ccccc1C1(c2ccc(C(C)(C)C)cc2)C(=O)Nc2ccccc21 (stereo not given) | 0.93 | –
12 | CC(C)(C)c1ccc(C2(c3ccccc3O)C(=O)Nc3ccccc32)cc1 (stereo not given) | 1.33 | 7 µM
13 | CC(C)(C)c1cccc(C2(c3ccccc3)C(=O)Nc3ccccc32)c1 (stereo not given) | 1.04 | 4 µM
14 | O=C1Nc2ccccc2C1(c1ccccc1)c1ccccc1O (stereo not given) | 0.56 | –
15 | CCc1ccc2c(c1)C(c1ccccc1)(c1ccccc1)C(=O)N2 | 0.85 | > 20 µM
16 | CC(C)(C)c1ccc(C2(c3ccccc3)C(=O)Nc3ccccc32)cc1 (stereo not given) | 0.95 | 8 µM
17 | O=C1Nc2ccc(Cl)cc2C1(c1ccccc1)c1ccccc1 | 0.61 | –
18 | O=C1Nc2cc(Br)ccc2C1(c1ccccc1)c1ccccc1 | 0.89 | –
19 | O=C1Nc2ccc(S(=O)(=O)O)cc2C1(c1ccccc1)c1ccccc1 | – | 9 µM
20 | CN1C(=O)C(c2ccccc2)(c2ccccc2)c2ccccc21 | – | > 20 µM
21 | COc1ccccc1C1(c2ccccc2)C(=O)Nc2ccccc21 (stereo not given) | 0.48 | –
